# Test results reported in ChEMBL document CHEMBL4346657, “Anticancer activity, dual prooxidant/antioxidant effect and apoptosis induction profile of new bichalcophene-5-carboxamidines” (Eur J Med Chem, 2019).
# Calls of active or inactive are those of the source. The rule behind the calls is not given here.
# Columns and labels:
# [1] = test system: Panel NCI-60 (60 carcinoma cell lines); assay: Antiproliferative activity against human NCI60 cells assessed as growth inhibition after 48 hrs by sulforhodamine B assay; assay type: functional
# [2] = Selectivity index, ratio of IC50 for human WI38 cells to GI50 for human NCI60 cells
# [3] = test system: MDA-MB-231; assay: Antiproliferative activity against human MDA-MB-231/ATCC cells assessed as growth inhibition after 48 hrs by sulforhodamine B assay; assay type: functional; conditions: MDA-MB-231, 48 h
# [4] = test system: MCF7; assay: Antiproliferative activity against human MCF7 cells assessed as growth inhibition after 48 hrs by sulforhodamine B assay; assay type: functional; conditions: MCF7, 48 h
# [5] = test system: Panel NCI-60 (60 carcinoma cell lines); assay: Antiproliferative activity against human NCI60 cells assessed as growth inhibition at 10 uM after 48 hrs by sulforhodamine B assay; assay type: functional; conditions: read-out: GI
# [6] = test system: DU-145; assay: Antiproliferative activity against human DU145 cells assessed as growth inhibition after 48 hrs by sulforhodamine B assay; assay type: functional; conditions: DU-145, 48 h
# [7] = test system: SN12C; assay: Antiproliferative activity against human SN12C cells assessed as growth inhibition after 48 hrs by sulforhodamine B assay; assay type: functional
# [8] = test system: ACHN; assay: Antiproliferative activity against human ACHN cells assessed as growth inhibition after 48 hrs by sulforhodamine B assay; assay type: functional
# [9] = test system: 786-0; assay: Antiproliferative activity against human 786-0 cells assessed as growth inhibition after 48 hrs by sulforhodamine B assay; assay type: functional; conditions: 786-0, 48 h
# [10] = test system: SK-OV-3; assay: Antiproliferative activity against human SKOV3 cells assessed as growth inhibition after 48 hrs by sulforhodamine B assay; assay type: functional; conditions: SK-OV-3, 48 h
# [11] = test system: OVCAR-5; assay: Antiproliferative activity against human OVCAR5 cells assessed as growth inhibition after 48 hrs by sulforhodamine B assay; assay type: functional; conditions: OVCAR-5, 48 h
# [12] = test system: IGROV-1; assay: Antiproliferative activity against human IGROV1 cells assessed as growth inhibition after 48 hrs by sulforhodamine B assay; assay type: functional; conditions: IGROV-1, 48 h
# [13] = test system: UACC-62; assay: Antiproliferative activity against human UACC62 cells assessed as growth inhibition after 48 hrs by sulforhodamine B assay; assay type: functional; conditions: UACC-62, 48 h
# [14] = test system: SK-MEL-5; assay: Antiproliferative activity against human SK-MEL-5 cells assessed as growth inhibition after 48 hrs by sulforhodamine B assay; assay type: functional; conditions: SK-MEL-5, 48 h
# [15] = test system: SK-MEL-28; assay: Antiproliferative activity against human SK-MEL-28 cells assessed as growth inhibition after 48 hrs by sulforhodamine B assay; assay type: functional; conditions: SK-MEL-28, 48 h
# [16] = test system: SK-MEL-2; assay: Antiproliferative activity against human SK-MEL-2 cells assessed as growth inhibition after 48 hrs by sulforhodamine B assay; assay type: functional; conditions: SK-MEL-2, 48 h
# [17] = test system: MDA-MB-435; assay: Antiproliferative activity against human MDA-MB-435 cells assessed as growth inhibition after 48 hrs by sulforhodamine B assay; assay type: functional; conditions: MDA-MB-435, 48 h
# [18] = test system: M14; assay: Antiproliferative activity against human M14 cells assessed as growth inhibition after 48 hrs by sulforhodamine B assay; assay type: functional; conditions: M14, 48 h
# [19] = test system: Malme-3M; assay: Antiproliferative activity against human MALME-3M cells assessed as growth inhibition after 48 hrs by sulforhodamine B assay; assay type: functional
# [20] = test system: SNB-19; assay: Antiproliferative activity against human SNB19 cells assessed as growth inhibition after 48 hrs by sulforhodamine B assay; assay type: functional; conditions: SNB-19, 48 h
# [21] = test system: SF-295; assay: Antiproliferative activity against human SF295 cells assessed as growth inhibition after 48 hrs by sulforhodamine B assay; assay type: functional; conditions: SF-295, 48 h
# [22] = test system: SF-268; assay: Antiproliferative activity against human SF268 cells assessed as growth inhibition after 48 hrs by sulforhodamine B assay; assay type: functional; conditions: SF-268, 48 h
# [23] = test system: SW-620; assay: Antiproliferative activity against human SW620 cells assessed as growth inhibition after 48 hrs by sulforhodamine B assay; assay type: functional; conditions: SW-620, 48 h
# [24] = test system: HCT-116; assay: Antiproliferative activity against human HCT116 cells assessed as growth inhibition after 48 hrs by sulforhodamine B assay; assay type: functional; conditions: HCT-116, 48 h
# [25] = test system: COLO 205; assay: Antiproliferative activity against human COLO205 cells assessed as growth inhibition after 48 hrs by sulforhodamine B assay; assay type: functional; conditions: COLO 205, 48 h
# [26] = test system: NCI-H522; assay: Antiproliferative activity against human NCI-H522 cells assessed as growth inhibition after 48 hrs by sulforhodamine B assay; assay type: functional; conditions: NCI-H522, 48 h
# [27] = test system: NCI-H460; assay: Antiproliferative activity against human NCI-H460 cells assessed as growth inhibition after 48 hrs by sulforhodamine B assay; assay type: functional; conditions: NCI-H460, 48 h
# [28] = test system: NCI-H322M; assay: Antiproliferative activity against human NCI-H322M cells assessed as growth inhibition after 48 hrs by sulforhodamine B assay; assay type: functional
# [29] = test system: NCI-H226; assay: Antiproliferative activity against human NCI-H226 cells assessed as growth inhibition after 48 hrs by sulforhodamine B assay; assay type: functional; conditions: NCI-H226, 48 h
# [30] = test system: EKVX; assay: Antiproliferative activity against human EKVX cells assessed as growth inhibition after 48 hrs by sulforhodamine B assay; assay type: functional
# [31] = test system: RPMI-8226; assay: Antiproliferative activity against human RPMI8226 cells assessed as growth inhibition after 48 hrs by sulforhodamine B assay; assay type: functional; conditions: RPMI-8226, 48 h
# [32] = test system: HL-60(TB); assay: Antiproliferative activity against human HL-60(TB) cells assessed as growth inhibition after 48 hrs by sulforhodamine B assay; assay type: functional; conditions: HL-60, 48 h
# [33] = test system: CCRF-CEM; assay: Antiproliferative activity against human CCRF-CEM cells assessed as growth inhibition after 48 hrs by sulforhodamine B assay; assay type: functional
# [34] = Haemolytic activity in human erythrocytes assessed as induction of hemolysis at 10 mM after 30 mins relative to H202; assay type: cell-based, Erythrocyte; conditions: read-out: Activity
# [35] = Haemolytic activity in human erythrocytes assessed as induction of hemolysis at 5 mM after 30 mins relative to H202; assay type: cell-based, Erythrocyte; conditions: read-out: Activity
# [36] = Antioxidant activity assessed as ABTS radical scavenging activity by spectrophotometric analysis relative to control; assay type: functional; parameters: concentration or dose not given beside the values; conditions: dose or concentration not given here
# [37] = Antioxidant activity assessed as ABTS radical scavenging activity by spectrophotometric method relative to ascorbic acid; assay type: functional
# [38] = Antioxidant activity assessed as hydroxyl radical scavenging activity after 1 hr by salicylic acid-based Fenton reaction assay; assay type: functional
# [39] = Pro-oxidant activity assessed as increase in bleomycin-Fe2+ induced calf thymus DNA damage at 2 mM after 1 hr by thiobarbituric acid based absorbance analysis
# [40] = test system: HCT-116; assay: Induction of apoptosis in human HCT116 cells assessed as increase in caspase 9 mRNA expression at 100 nM after 6 hrs hrs by SYBR green dye-based qRT-PCR analysis relative to control; assay type: functional
# [41] = test system: HCT-116; assay: Induction of apoptosis in human HCT116 cells assessed as increase in p53 mRNA expression at 100 nM after 6 hrs hrs by SYBR green dye-based qRT-PCR analysis relative to control; assay type: functional
# [42] = test system: HCT-116; assay: […] in CDK1 mRNA expression in human HCT116 cells at 100 nM after 6 hrs hrs by SYBR green dye-based qRT-PCR analysis relative to control; assay type: functional
smiles,measurement,setting,value
N=C(N)c1ccc(-c2ccc(-c3ccc(F)cc3)s2)s1,GI50,[1],1770 nM
same,LC50,[1],12000 nM
same,TGI,[1],3540 nM
same,Selectivity Index,[2],7.5
same,GI50,[3],1740 nM
same,GI50,[4],1150 nM
same,inhibition of growth at 10 µM,[5],-25.8%
same,GI50,[6],1720 nM
same,GI50,[7],1980 nM
same,GI50,[8],1710 nM
same,GI50,[9],1810 nM
same,GI50,[10],1800 nM
same,GI50,[11],1700 nM
same,GI50,[12],1730 nM
same,GI50,[13],1940 nM
same,GI50,[14],1810 nM
same,GI50,[15],1730 nM
same,GI50,[16],1810 nM
same,GI50,[17],1590 nM
same,GI50,[18],1890 nM
same,GI50,[19],1810 nM
same,GI50,[20],1970 nM
same,GI50,[21],1610 nM
same,GI50,[22],1690 nM
same,GI50,[23],1740 nM
same,GI50,[24],1730 nM
same,GI50,[25],1320 nM
same,GI50,[26],1820 nM
same,GI50,[27],1890 nM
same,GI50,[28],1630 nM
same,GI50,[29],1420 nM
same,GI50,[30],1470 nM
same,GI50,[31],2100 nM
same,GI50,[32],1400 nM
same,GI50,[33],1850 nM
same,"hemolysis at 0.5 h, 10000 µM",[34],93.3%
same,"hemolysis at 0.5 h, 5000 µM",[35],59.7%
same,inhibition,[36],49.7%
same,fold change (FC),[37],0.5
same,Activity,[38],Active
same,Activity,[39],Active
same,fold change (FC),[40],3.89
same,fold change (FC),[41],1.06
same,fold change (FC),[42],0.89
N=C(N)c1ccc(-c2ccc(-c3cc(Cl)cc(Cl)c3)s2)s1,GI50,[1],1940 nM
same,LC50,[1],75800 nM
same,TGI,[1],4460 nM
same,Selectivity Index,[2],50.9
same,GI50,[3],1870 nM
same,GI50,[4],1340 nM
same,inhibition of growth at 10 µM,[5],-28.6%
same,GI50,[6],1820 nM
same,GI50,[7],2020 nM
same,GI50,[8],1750 nM
same,GI50,[9],1980 nM
same,GI50,[10],3620 nM
same,GI50,[11],1960 nM
same,GI50,[12],1970 nM
same,GI50,[13],1920 nM
same,GI50,[14],1900 nM
same,GI50,[15],1830 nM
same,GI50,[16],2240 nM
same,GI50,[17],1670 nM
same,GI50,[18],2020 nM
same,GI50,[19],1850 nM
same,GI50,[20],2110 nM
same,GI50,[21],1960 nM
same,GI50,[22],1960 nM
same,GI50,[23],1920 nM
same,GI50,[24],1610 nM
same,GI50,[25],1540 nM
same,GI50,[26],1910 nM
same,GI50,[27],2050 nM
same,GI50,[28],1660 nM
same,GI50,[29],30800 nM
same,GI50,[30],1750 nM
same,GI50,[31],2330 nM
same,GI50,[32],1660 nM
same,GI50,[33],2140 nM
same,"hemolysis at 0.5 h, 10000 µM",[34],17%
same,"hemolysis at 0.5 h, 5000 µM",[35],6.7%
same,inhibition,[36],36.2%
same,fold change (FC),[37],0.4
same,Activity,[38],Active
same,Activity,[39],Active
same,fold change (FC),[40],1.54
same,fold change (FC),[41],3.98
same,fold change (FC),[42],0.21
